Laboratory results as given in patent US20240109917A1 (ACTELION PHARMACEUTICALS LTD, priority 2020, published 2024).

Tests used:
VEGFR2, unphosphorylated = VEGFR2, unphosphorylated (Homo sapiens (Human), UniProt P35968); assay: VEGFR ADP GLO Assay; assay type: biochemical
[1] = molecular target: His6-TEV-PDGFRβ (557-1016) (Homo sapiens (Human), UniProt P09619); assay: PDGFRβ HTRF Assay; assay type: biochemical; conditions: read-out: PDGFR HTRF IC50
Summary of the method: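 Human PDGFRβ (557-1016) pre-incubated with compound for 30 min at RT in pH 7.5 HEPES/MgCl2/EGTA/Brij-35/DTT buffer. Reaction started with ATP and TK-biotin peptide, run 3 h at RT, then quenched with EDTA-containing Eu-cryptate antibody/streptavidin-XL665. HTRF 665/620 nm ratio read after 60 min; percent inhibition relative to DMSO and 10 μM imatinib controls.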

[2] = molecular target: Tb-labeled inactive PDGFRβ (Homo sapiens (Human), UniProt P09619); assay: PDGFRβ LanthaScreen Assay; assay type: binding; conditions: read-out: PDGFR Lantha IC50
Sequence of Tb-labeled inactive PDGFRβ (P09619 33-1106): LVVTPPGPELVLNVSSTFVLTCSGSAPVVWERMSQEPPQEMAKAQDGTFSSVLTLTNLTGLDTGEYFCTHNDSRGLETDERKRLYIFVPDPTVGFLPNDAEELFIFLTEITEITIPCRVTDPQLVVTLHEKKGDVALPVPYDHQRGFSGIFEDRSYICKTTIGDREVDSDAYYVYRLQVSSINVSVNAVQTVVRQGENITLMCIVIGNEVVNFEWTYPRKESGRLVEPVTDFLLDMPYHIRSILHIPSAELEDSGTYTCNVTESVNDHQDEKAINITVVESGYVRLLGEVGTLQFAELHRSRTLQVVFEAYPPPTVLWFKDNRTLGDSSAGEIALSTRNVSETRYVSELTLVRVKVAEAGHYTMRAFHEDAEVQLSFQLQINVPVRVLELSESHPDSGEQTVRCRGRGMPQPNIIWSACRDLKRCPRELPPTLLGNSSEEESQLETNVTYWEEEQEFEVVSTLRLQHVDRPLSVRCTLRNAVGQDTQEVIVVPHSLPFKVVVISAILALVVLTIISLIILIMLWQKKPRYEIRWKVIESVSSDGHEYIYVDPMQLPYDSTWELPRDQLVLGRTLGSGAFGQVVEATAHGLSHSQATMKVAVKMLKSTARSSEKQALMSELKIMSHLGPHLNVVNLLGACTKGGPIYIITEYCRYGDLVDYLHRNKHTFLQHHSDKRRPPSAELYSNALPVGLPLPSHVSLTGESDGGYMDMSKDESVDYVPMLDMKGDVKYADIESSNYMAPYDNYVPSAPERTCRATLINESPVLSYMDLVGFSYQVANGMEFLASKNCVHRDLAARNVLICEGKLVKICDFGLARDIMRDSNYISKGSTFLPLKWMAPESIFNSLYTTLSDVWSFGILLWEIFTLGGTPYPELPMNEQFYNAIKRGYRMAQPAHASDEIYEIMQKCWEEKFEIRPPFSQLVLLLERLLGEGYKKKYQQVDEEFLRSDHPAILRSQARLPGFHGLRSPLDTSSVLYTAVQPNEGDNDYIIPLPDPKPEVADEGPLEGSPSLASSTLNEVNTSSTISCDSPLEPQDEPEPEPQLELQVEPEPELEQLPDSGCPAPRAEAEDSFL

Sequence of VEGFR2, unphosphorylated (P35968 20-1356): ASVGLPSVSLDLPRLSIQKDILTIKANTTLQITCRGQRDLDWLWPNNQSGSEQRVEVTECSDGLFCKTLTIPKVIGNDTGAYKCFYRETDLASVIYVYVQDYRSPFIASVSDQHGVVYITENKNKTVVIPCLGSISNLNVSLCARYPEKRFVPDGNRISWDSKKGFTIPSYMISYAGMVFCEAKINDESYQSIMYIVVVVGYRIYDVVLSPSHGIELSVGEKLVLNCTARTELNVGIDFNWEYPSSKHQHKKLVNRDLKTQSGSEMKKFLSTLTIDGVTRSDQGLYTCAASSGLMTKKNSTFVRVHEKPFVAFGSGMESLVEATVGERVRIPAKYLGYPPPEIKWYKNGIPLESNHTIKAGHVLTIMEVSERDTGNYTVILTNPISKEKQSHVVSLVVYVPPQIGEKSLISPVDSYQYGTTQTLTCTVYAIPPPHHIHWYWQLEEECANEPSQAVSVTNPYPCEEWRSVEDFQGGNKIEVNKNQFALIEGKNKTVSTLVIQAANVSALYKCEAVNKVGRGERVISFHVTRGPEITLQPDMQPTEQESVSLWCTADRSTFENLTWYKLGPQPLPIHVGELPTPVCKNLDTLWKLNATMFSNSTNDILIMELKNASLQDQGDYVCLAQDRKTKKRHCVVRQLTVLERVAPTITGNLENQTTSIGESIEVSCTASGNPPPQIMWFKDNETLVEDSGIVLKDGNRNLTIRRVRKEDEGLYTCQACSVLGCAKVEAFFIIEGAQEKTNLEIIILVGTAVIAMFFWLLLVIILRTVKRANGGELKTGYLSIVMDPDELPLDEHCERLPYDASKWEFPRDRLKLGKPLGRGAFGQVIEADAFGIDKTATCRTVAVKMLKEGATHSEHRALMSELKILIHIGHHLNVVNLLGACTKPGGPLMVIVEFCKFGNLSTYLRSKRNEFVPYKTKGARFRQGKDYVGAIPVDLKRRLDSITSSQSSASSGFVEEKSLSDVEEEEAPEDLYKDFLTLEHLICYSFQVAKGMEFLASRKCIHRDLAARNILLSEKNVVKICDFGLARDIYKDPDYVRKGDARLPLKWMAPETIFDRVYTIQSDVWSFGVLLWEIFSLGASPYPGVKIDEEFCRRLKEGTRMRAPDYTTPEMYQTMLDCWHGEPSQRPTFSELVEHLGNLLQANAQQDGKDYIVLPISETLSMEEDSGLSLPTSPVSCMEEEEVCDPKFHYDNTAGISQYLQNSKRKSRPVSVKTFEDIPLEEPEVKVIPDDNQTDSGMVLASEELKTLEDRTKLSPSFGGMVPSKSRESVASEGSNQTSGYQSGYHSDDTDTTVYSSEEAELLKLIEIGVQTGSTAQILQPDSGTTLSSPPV
Sequence of His6-TEV-PDGFRβ (557-1016) (P09619 557-1016): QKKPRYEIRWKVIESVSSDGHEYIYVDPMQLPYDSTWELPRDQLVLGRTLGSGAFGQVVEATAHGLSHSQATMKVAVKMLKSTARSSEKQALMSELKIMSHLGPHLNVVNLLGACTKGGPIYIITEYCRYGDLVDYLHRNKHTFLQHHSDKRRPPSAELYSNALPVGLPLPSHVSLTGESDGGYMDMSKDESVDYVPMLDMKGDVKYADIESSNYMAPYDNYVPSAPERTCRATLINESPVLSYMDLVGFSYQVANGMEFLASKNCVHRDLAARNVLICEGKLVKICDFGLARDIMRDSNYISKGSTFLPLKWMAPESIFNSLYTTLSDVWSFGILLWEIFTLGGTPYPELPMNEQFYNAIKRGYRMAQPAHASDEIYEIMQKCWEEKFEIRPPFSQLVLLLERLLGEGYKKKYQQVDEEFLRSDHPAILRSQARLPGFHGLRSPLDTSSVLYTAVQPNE

Molecule `Cc1ncc(C(=O)NCCN2CC(C)(C)C2)cc1NC(=O)c1cnn2cc(-c3ccncc3)sc12` [Example 155, N-(5-((2-(3,3-dimethylazetidin-1-yl)ethyl)carbamoyl)-2-methylpyridin-3-yl)-2-(pyridin-4-yl)pyrazolo[5,1-b]thiazole-7-carboxamide] has an IC50 (VEGFR2, unphosphorylated) of over 7500 nM, an IC50 [1] of 1 nM and an IC50 [2] of 39.4 nM.

With `COCCn1cc(-c2cn3ncc(C(=O)Nc4cc(C(=O)NCCN5CC6(CCC6)C5)cnc4C)c3s2)cn1` [Example 168, N-(5-((2-(2-azaspiro[3.3]heptan-2-yl)ethyl)carbamoyl)-2-methylpyridin-3-yl)-2-(1-(2-methoxyethyl)-1H-pyrazol-4-yl)pyrazolo[5,1-b]thiazole-7-carboxamide] the IC50 (VEGFR2, unphosphorylated) was over 7500 nM, the IC50 [1] was 0.6 nM and the IC50 [2] was 17.4 nM.

With `Cc1ncc(C(=O)NCCN2CCCC2(C)C)cc1NC(=O)c1cnn2cc(-c3cn(C)cn3)sc12` [Example 163, N-(5-((2-(2,2-dimethylpyrrolidin-1-yl)ethyl)carbamoyl)-2-methylpyridin-3-yl)-2-(1-methyl-1H-imidazol-4-yl)pyrazolo[5,1-b]thiazole-7-carboxamide] the IC50 (VEGFR2, unphosphorylated) was over 7500 nM, the IC50 [1] was 0.3 nM and the IC50 [2] was 3.9 nM.

Work on `Cc1ncc(C(=O)NCCN2CCC3(CC3)C2)cc1NC(=O)c1cnn2cc(-c3cccnc3)sc12` [Example 159, N-(5-((2-(5-azaspiro[2.4]heptan-5-yl)ethyl)carbamoyl)-2-methylpyridin-3-yl)-2-(pyridin-3-yl)pyrazolo[5,1-b]thiazole-7-carboxamide] yielded an IC50 (VEGFR2, unphosphorylated) of over 7500 nM, an IC50 [1] of 0.7 nM and an IC50 [2] of 21.6 nM.

In the case of `COCCn1cc(-c2cn3ncc(C(=O)Nc4cc(NC(=O)CCN5CCC56CCC6)cnc4C)c3s2)cn1` [Example 95, N-(5-(3-(1-azaspiro[3.3]heptan-1-yl)propanamido)-2-methylpyridin-3-yl)-2-(1-(2-methoxyethyl)-1H-pyrazol-4-yl)pyrazolo[5,1-b]thiazole-7-carboxamide], the IC50 (VEGFR2, unphosphorylated) is reported as over 7500 nM, the IC50 [1] is reported as 0.4 nM and the IC50 [2] is reported as 5.1 nM.

`Cc1ncc(C(=O)NCCN2C3CCC2COC3)cc1NC(=O)c1cnn2cc(-c3cnn(C)c3)sc12` [Example 122, N-(5-((2-(3-oxa-8-azabicyclo[3.2.1]octan-8-yl)ethyl)carbamoyl)-2-methylpyridin-3-yl)-2-(1-methyl-1H-pyrazol-4-yl)pyrazolo[5,1-b]thiazole-7-carboxamide] showed an IC50 (VEGFR2, unphosphorylated) of over 7500 nM, an IC50 [1] of 0.3 nM and an IC50 [2] of 2.8 nM.

With `COCCN(CCNC(=O)c1cnc(C)c(NC(=O)c2cnn3cc(-c4cnn(C)c4)sc23)c1)CCOC` [Example 128, N-(5-((2-(bis(2-methoxyethyl)amino)ethyl)carbamoyl)-2-methylpyridin-3-yl)-2-(1-methyl-1H-pyrazol-4-yl)pyrazolo[5,1-b]thiazole-7-carboxamide] the IC50 (VEGFR2, unphosphorylated) was over 7500 nM, the IC50 [1] was 0.9 nM and the IC50 [2] was 18.3 nM.

In the case of `COCCn1cc(-c2cn3ncc(C(=O)Nc4cc(C(=O)NCCN5CCC(F)(F)C5)cnc4C)c3s2)cn1` [Example 167, N-(5-((2-(3,3-difluoropyrrolidin-1-yl)ethyl)carbamoyl)-2-methylpyridin-3-yl)-2-(1-(2-methoxyethyl)-1H-pyrazol-4-yl)pyrazolo[5,1-b]thiazole-7-carboxamide], the IC50 (VEGFR2, unphosphorylated) is reported as over 7500 nM, the IC50 [1] is reported as 0.5 nM and the IC50 [2] is reported as 4.2 nM.

For `Cc1ncc(C(=O)NCCN2CCC(C)(C)C2)cc1NC(=O)c1cnn2cc(-c3ccncc3)sc12` [Example 156, N-(5-((2-(3,3-dimethylpyrrolidin-1-yl)ethyl)carbamoyl)-2-methylpyridin-3-yl)-2-(pyridin-4-yl)pyrazolo[5,1-b]thiazole-7-carboxamide], the IC50 (VEGFR2, unphosphorylated) was over 7500 nM, the IC50 [1] was 0.4 nM and the IC50 [2] was 9.8 nM.

In the case of `Cc1ncc(C(=O)NCCN2CCC3(CC3)C2)cc1NC(=O)c1cnn2cc(-c3ccncc3)sc12` [Example 153, N-(5-((2-(5-azaspiro[2.4]heptan-5-yl)ethyl)carbamoyl)-2-methylpyridin-3-yl)-2-(pyridin-4-yl)pyrazolo[5,1-b]thiazole-7-carboxamide], the IC50 (VEGFR2, unphosphorylated) is reported as over 7500 nM, the IC50 [1] is reported as 0.4 nM and the IC50 [2] is reported as 18 nM.

For `Cc1ncc(C(=O)NCCN2CC3CCC2CC3)cc1NC(=O)c1cnn2cc(-c3ccc4oc(=O)[nH]c4c3)sc12` [Example 145, N-(5-((2-(2-azabicyclo[2.2.2]octan-2-yl)ethyl)carbamoyl)-2-methylpyridin-3-yl)-2-(2-oxo-2,3-dihydrobenzo[d]oxazol-5-yl)pyrazolo[5,1-b]thiazole-7-carboxamide], the IC50 (VEGFR2, unphosphorylated) was over 833 nM, the IC50 [1] was 0.2 nM and the IC50 [2] was 1.4 nM.

In the case of `Cc1ncc(C(=O)NCCN2C3CCC2CC3)cc1NC(=O)c1cnn2cc(-c3cnn(C)c3C)sc12` [Example 172, N-(5-((2-(7-azabicyclo[2.2.1]heptan-7-yl)ethyl)carbamoyl)-2-methylpyridin-3-yl)-2-(1,5-dimethyl-1H-pyrazol-4-yl)pyrazolo[5,1-b]thiazole-7-carboxamide], the IC50 (VEGFR2, unphosphorylated) is reported as over 7500 nM, the IC50 [1] is reported as 0.3 nM and the IC50 [2] is reported as 3 nM.

With `Cc1ncc(NC(=O)CCN2CCC3(CC2)CC3)cc1NC(=O)c1cnn2cc(-c3cnn(C)c3)sc12` [Example 97, N-(5-(3-(6-azaspiro[2.5]octan-6-yl)propanamido)-2-methylpyridin-3-yl)-2-(1-methyl-1H-pyrazol-4-yl)pyrazolo[5,1-b]thiazole-7-carboxamide] the IC50 (VEGFR2, unphosphorylated) was over 7500 nM, the IC50 [1] was 0.4 nM and the IC50 [2] was 6.4 nM.

`Cc1ncc(C(=O)NCCN2CCC3(CCC3)C2)cc1NC(=O)c1cnn2cc(-c3cnn(C)c3)sc12` [Example 113, N-(5-((2-(6-azaspiro[3.4]octan-6-yl)ethyl)carbamoyl)-2-methylpyridin-3-yl)-2-(1-methyl-1H-pyrazol-4-yl)pyrazolo[5,1-b]thiazole-7-carboxamide] was tested, and the IC50 (VEGFR2, unphosphorylated) was over 7500 nM, the IC50 [1] was under 0.1 nM and the IC50 [2] was 1.4 nM.

`Cc1ncc(C(=O)NCCN2C3CCCC2CCC3)cc1NC(=O)c1cnn2cc(-c3cnn(C)c3)sc12` [Example 4, N-(5-((2-(9-azabicyclo[3.3.1]nonan-9-yl)ethyl)carbamoyl)-2-methylpyridin-3-yl)-2-(1-methyl-1H-pyrazol-4-yl)pyrazolo[5,1-b]thiazole-7-carboxamide] was tested, and the IC50 (VEGFR2, unphosphorylated) was over 7500 nM, the IC50 [1] was 0.3 nM and the IC50 [2] was 2.3 nM.

With `Cc1ncc(C(=O)NCCN2CCCC23COC3)cc1NC(=O)c1cnn2cc(-c3cnn(C)c3)sc12` [Example 114, N-(5-((2-(2-oxa-5-azaspiro[3.4]octan-5-yl)ethyl)carbamoyl)-2-methylpyridin-3-yl)-2-(1-methyl-1H-pyrazol-4-yl)pyrazolo[5,1-b]thiazole-7-carboxamide] the IC50 (VEGFR2, unphosphorylated) was over 7500 nM, the IC50 [1] was 0.4 nM and the IC50 [2] was 4.6 nM.
